In patent publication US20130337564A1, “Treatment of Pluripotent Cells” (Janssen Biotech, Inc., priority 2012, published 2013):

How the values were obtained:
[1] = test system: cells expressing pluripotency markers derived from human embryonic stem cells; test: MTS viability (toxicity) assay of cells expressing pluripotency markers; assay type: cell-based; set-up: Raw data (duplicate), first replicate / Average: unit not given here; details: for viability at 10 µM: Homo sapiens, Embryonic stem cell, viability of cells expressing pluripotency markers, relative to control; for Raw data (duplicate), first replicate / Raw data (duplicate), second replicate: MTS viability assay raw reading; for Raw data (duplicate), first replicate: replicate 1; for Raw data (duplicate), second replicate: replicate 2; for Average: average of duplicate MTS raw readings; for Average of raw data (duplicate), optical density at 490 nm: MTS on day 4
How it was run: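 A GSK-3B inhibitor library was screened for toxicity to pluripotency-marker-expressing cells. Compound was given in DMEM:F12 with 0.5% FCS and 100 ng/ml Activin A for two days, then replaced by medium with 2% FCS and Activin A. On day 4, MTS absorbance at 490 nm gave viability as percent of Activin A plus Wnt3a control wells.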

[2] = test system: Sox17 expression in human embryonic stem cells (H9 line); test: High content screening assay: Sox17 protein expression (differentiation); assay type: cell-based; details: for fold induction at 10 µM: Homo sapiens, Embryonic stem cell, 10 μM test compound with 100 ng/ml activin A on days 1-2, H9, total intensity by IN Cell Analyzer, strong and moderate hits, read-out: SOX17 Expression, Fold over Wnt 3a/AA control
How it was run: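 H9 hESCs on MATRIGEL treated days 1-2 with 10 μM compound in DMEM:F12, 0.5% FCS, 100 ng/ml activin A; days 3-4 with 2% FCS plus activin A without compound. Fixed cells immunostained for Sox17 or HNF-3beta with Draq5 nuclear counterstain. Cell number and staining intensity quantified by high-content imaging, 12 fields/well.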

Structure (SMILES)	viability at 10 µM [1]	Raw data (duplicate), first replicate [1]	Raw data (duplicate), second replicate [1]	Average [1]	fold induction at 10 µM [2]	Average of raw data (duplicate), optical density at 490 nm ([1]; cmpd conc 2.5 μM)	Average of raw data (duplicate), optical density at 490 nm ([1]; cmpd conc 5 μM)	Average of raw data (duplicate), optical density at 490 nm ([1]; cmpd conc 10 μM)	SOX-17 Expression Total Intensity [2]
O=C1NC(=O)C(c2cn(CCCO)c3ncccc23)=C1c1ccn(CCCO)n1 [Compound 185, 3-[1-(3-Hydroxypropyl)-1H-pyrazol-3-yl]-4-[1-(3-hydroxypropyl)-1H-pyrrolo[2,3-b]pyridin-3-yl]-1H-pyrrole-2,5-dione]	104%	0.830	0.807	0.818	0.889				
CN(CCO)CCCn1nc(C2=C(c3cn(-c4cccnc4)c4ccccc34)C(=O)NC2=O)c2ccccc21 [Compound 198, 3-(1-{3-[(2-Hydroxyethyl)(methyl)amino]propyl}-1H-indazol-3-yl)-4-(1-pyridin-3-yl-1H-indol-3-yl)-1H-pyrrole-2,5-dione]	112%	0.856	0.905	0.881		0.7480	0.6893	0.4619	20866647
O=C1NC(=O)C(c2cn(-c3cccnc3)c3ccccc23)=C1c1cn(CCO)c2ccccc12 [Compound 206, 3-[1-(2-Hydroxyethyl)-1H-indol-3-yl]-4-(1-pyridin-3-yl-1H-indol-3-yl)-1H-pyrrole-2,5-dione]	110%	0.845	0.877	0.861	1.74	0.7517	0.7326	0.1793	223646667
Cn1ccc(C2=C(c3cn(CCCO)c4ncccc34)C(=O)NC2=O)n1 [Compound 209]	121%	0.971	0.913	0.942	0.628				80676667
COc1ccccc1C1=C(c2cn(-c3cccnc3)c3ccccc23)C(=O)NC1=O [Compound 216, 3-[2-(Methyloxy)phenyl]-4-(1-pyridin-3-yl-1H-indol-3-yl)-1H-pyrrole-2,5-dione]	92.2%	0.768	0.724	0.746					252690000
Cc1c[nH]c(-c2cnc(NCCNc3ccc(C#N)cn3)nc2-c2ccc(Cl)cc2Cl)n1 [Compound 221, 6-[(2-{[4-(2,4-Dichlorophenyl)-5-(4-methyl-1H-imidazol-2-yl)pyrimidin-2-yl]amino}ethyl)amino]pyridine-3-carbonitrile]	98.8%				1.12	0.9324	0.7191	0.6128	1089750000
CC(C)(O)CCn1nc(C2=C(c3cn(-c4cccnc4)c4ccccc34)C(=O)NC2=O)c2ccccc21 [Compound 223, 3-[1-(3-Hydroxy-3-methylbutyl)-1H-indazol-3-yl]-4-(1-pyridin-3-yl-1H-indol-3-yl)-1H-pyrrole-2,5-dione]	97.8%	0.770	0.786	0.778	1.04	0.8427	0.8021	0.7287	1013360000
O=C1NC(=O)C(c2nn(CCO)c3ccccc23)=C1c1cn(-c2cncnc2)c2ccccc12 [Compound 226, 3-[1-(2-Hydroxyethyl)-1H-indazol-3-yl]-4-(1-pyrimidin-5-yl-1H-indol-3-yl)-1H-pyrrole-2,5-dione]	83.1%	0.683	0.688	0.686	0.589	0.7474	0.7506	0.6945	572520000
O=C1NC(=O)C(c2cn(-c3cncnc3)c3ccccc23)=C1c1cn(CCO)c2ccccc12 [Compound 230, 3-[1-(2-Hydroxyethyl)-1H-indol-3-yl]-4-(1-pyrimidin-5-yl-1H-indol-3-yl)-1H-pyrrole-2,5-dione]	81.8%	0.680	0.663	0.671	1.14				1104750000
Cn1cc(C2=C(c3nn(CCCn4ccnc4)c4ccccc34)C(=O)NC2=O)c2cc(Cl)ccc21 [Compound 231, 3-(5-Chloro-1-methyl-1H-indol-3-yl)-4-{1-[3-(1H-imidazol-1-yl)propyl]-1H-indazol-3-yl}-1H-pyrrole-2,5-dione]	76.7%	0.640	0.636	0.638	0.811				789085000
Cn1cc(C2=C(c3nn(CCCn4ccnn4)c4ccccc34)C(=O)NC2=O)c2cc(Cl)ccc21 [Compound 232, 3-(5-Chloro-1-methyl-1H-indol-3-yl)-4-{1-[3-(1H-1,2,3-triazol-1-yl)propyl]-1H-indazol-3-yl}-1H-pyrrole-2,5-dione]	87.3%	0.720	0.697	0.709	1.07				1045395000
O=C1NC(=O)C2=C1Nc1cccc(c1)OCCC/C=C\CCCOc1cccc2c1 [Compound 233, (11Z)-8,9,10,13,14,15-Hexahydro-2,6:17,21-di(metheno)pyrrolo[3,4-h][1,15,7]dioxazacyclotricosine-22,24(1H,23H)-dione]	70.9%	0.608	0.590	0.599		0.4267	0.1283	0.1391	327055000
